Test system: HLA-E
Experiment: HLA-E expression on PBMCs after IFNγ treatment
Format: cell-based, human
Settings: PBMCs cultured with 5 ng ml^−1 IFNγ for 2 days; 3D12 flow cytometry

Substance: IFNγ: interferon-γ (BioLegend, PeproTech)
- HLA-E surface expression on peripheral blood cells: increase in HLA-E surface expression
